From patent publication US8540967B2, “Porphyrazine optical and dual optical/MR contrast and therapeutic agents” (Hoffman/Barrett, L.L.C., priority 2008, dated 2013)

Experiments:
[1] = Relaxivity (r1) of Gd-pz conjugates; format: physicochemical
Protocol: Dual-mode contrast agents were generated by coupling pz optical agents with gadolinium-based (Gd^3+) MR agents in order to permit co-registration of optical and MR image data. The synthetic versatility of the present pz structure allows a variety of strategies for attaching multiple MR imaging agents, for example, Gd^3+ chelates, to the pz structure. […] The relaxivity of a Gd^3+ chelate attached to a pz ranges from about 10 to about 14 mM-1s-1/Gd (Table 1).
In the preparation of Gd-pzs, ‘click’ chemistry was used to append 4 and 8 Gd^3+ chelates to an M[pz(A2; B2)] pz, leading to the Gd8-Mpz conjugate (M=Zn, Cu) shown above, and analogous Gd-4-Mpz conjugates having one chelate per pz ‘arm’. […] This is significant because the higher the observed relaxivity of the conjugate, the greater its efficacy as an in vivo MR contrast agent. Importantly, these conjugates are suitable as dual-mode contrast agents because the presence of as many as eight Gd agents has no significant influence on the pz luminescence for the M=Zn complex. In addition, the pz-Gd conjugates are water soluble and can be administered to rodents without the addition of DMSO.

[2] = tested on: A549 lung carcinoma cells; experiment: Confocal NIR fluorescence microscopy of cellular uptake, tumor cells; format: cell-based; details: confocal images; compound 247: 50 μM, 24 hr stain
Protocol: (§1) Cellular uptake monitored by confocal fluorescence microscopy is dependent on the pz's overall amphiphilicity, and qualitative analysis indicates preferential uptake into tumor cells (e.g., A549) over non-tumorigenic cells (e.g., WI38 VA13).
(§2) The MTT test was performed using the procedure disclosed in S. Lee et al., Metal-Based Drugs (2008), pages 391-418.

[3] = tested on: WI38 VA13 non-tumorigenic cells; experiment: Confocal NIR fluorescence microscopy of cellular uptake, non-tumorigenic cells; format: cell-based; details: confocal images; 50 μM
Protocol: as §1, §2
Therefore, compound 270, a pz having a single appended Gd^3+, was synthesized.

A549 tumor cells = experiment: MTT assay, tumor cells; format: cell-based; details: 50 μM
Protocol: as §2

[4] = tested on: WI38 VA13 non-tumorigenic cells; experiment: MTT assay, non-tumorigenic cells; format: cell-based; details: 50 μM
Protocol: as §2

[5] = tested on: A549 lung carcinoma cells; experiment: Time course studies of pz accumulation and cell viability; format: cell-based
Protocol: Time course studies also were performed using compounds 241, 243, 244, 246, 247, 249, 254, and 255 using A549 lung carcinoma cells and W138 VA13 non-tumorigenic cells. The studies confirmed accumulation of a present pz in tumor cells and a decrease in tumor cell viability.

[6] = tested on: PC3-EGFP (human prostate tumor cells stably expressing GFP) tibia tumors; experiment: Biodistribution by NIR fluorescence imaging in mice with tibia tumors; format: in vivo, mouse
Protocol: In one experiment, male FVB/n5 Rag-1−/− mice were injected with […] PC3-EGFP (human prostate tumor cells stably expressing GFP) in the tibia four weeks prior to imaging with pzs. Prior to imaging, the mice were anesthetized with 4% isoflurane and injected with 20 nmol of compound 247 (150 μL, 7.5% DMSO) intravenously via the tail vein. Fluorescent images were acquired immediately and after 4, 24, and 42 hours. […] GFP images were acquired using excitation wavelengths of 465 nm and fluorescence was detected at 535 nm. X-ray images were acquired for anatomical co-registration.
The mice subsequently were euthanized, legs were excised, and images were acquired without the surrounding skin and muscle.

[7] = tested on: MDA-MB-231-RFP subcutaneous tumors; experiment: NIR fluorescence imaging of subcutaneous tumors in female SCID mice; format: in vivo, mouse
Description: In a second experiment to verify that compound 247 robustly and reproducibly localizes in tumors of more than one tissue origin, female SCID mice were subcutaneously injected with MDA-MB-231-RFP cells stably expressing Red Fluorescent Protein (RFP). This approach provides excellent confirming information because (a) palpable subcutaneous tumors are easily identified prior to imaging as opposed to bone tumors which are difficult to detect non-invasively; (b) RFP-expressing tumors are visible through the skin as opposed to GFP tumors, which require removal of skin prior to imaging; (c) pz localization in the tumor is visible during non-invasive whole animal imaging; and (d) tumors are easily harvested, fixed, and processed for histochemical and biochemical analyses. Five mice were dosed with 20 nmol of compound 247 in 7.5% DMSO, administered intravenously. The […] wavelength used for RFP excitation was 535 nm with emission detected using a 565-615 nm bandpass filter. Compound 247 was excited using a 625 nm bandpass and emission detected at 700 nm. […] Therefore, there is no penetration of undesired signal during imaging. Images were acquired for RFP, as well as pz fluorescence, after 5, 24, 32 and 48 hours. […] With this remarkable contrast, compound 247 therefore acts as a ‘turn-on’ NIR-fluorescence tumor imager. At the conclusion of the 48 hour experiment, the tumors were excised and processed for antibody staining. Slices were stained for nuclei (DAPI) to determine the localization of pzs within heterogeneous 3-dimensional tumors. […] The important benefit of having the RFP and pz survive tissue processing is noted.

Compound | Relaxivity r1/Gd ([1]; per Gd) [mM⁻¹ s⁻¹] | Relaxivity r1 (molecular relaxivity) ([1]; per molecule) [mM⁻¹ s⁻¹] | Uptake/accumulation in A549 lung carcinoma cells (NIR fluorescence) [2] | Uptake into WI38 VA13 cells (NIR fluorescence) [3] | Toxicity to tumor cells (MTT) (A549 tumor cells) | Toxicity to non-tumorigenic cells (MTT) [4] | Accumulation of pz in tumor cells [5] | Tumor cell viability [5] | pz fluorescence location after 4 hours ([6]; 20 nmol i.v. tail vein, 4 hours) | pz fluorescence location after 24 hours ([6]; 20 nmol i.v. tail vein, 24 hours) | Red fluorescence location in excised legs ([6]; 20 nmol, excised legs without skin and muscle, overlay with GFP) | Retention in tumor-free tibia ([6]; mouse 3 without tumor) | Time until pz fluorescence detectable in tumor ([7]; 20 nmol i.v. in 7.5% DMSO) [h] | pz fluorescence intensity in tumor over time ([7]; 20 nmol i.v., over the 48 hour experiment) | pz fluorescence in other organs or tissues ([7]; 20 nmol i.v., up to 48 hours) | Accumulation in MDA-231 tumors in vivo ([7]; 20 nmol tail vein, 5 to 48 hours) | Localization within excised tumor sections ([7]; tumors excised at 48 hours, DAPI-stained slices)
O=C([O-])CN1CCN(CC(=O)[O-])CCN(CC(=O)O)CCN(CC(=O)[O-])CC1.[Gd+3] [Gd-DOTA, gadolinium tetrazacyclododecanetetraacetic acid] | 3.2 | 3.2 | – | – | – | – | – | – | – | – | – | – | – | – | – | – | –
CO[C@]1(C)Oc2c(c3nc4nc(nc5[nH]c(nc6nc(nc2[nH]3)-c2c(OC(C)C)ccc(OC(C)C)c2-6)c2c5O[C@@](C)(OC)[C@](C)(OC)O2)-c2c(OC(C)C)ccc(OC(C)C)c2-4)O[C@@]1(C)OC [Compound 247] | – | – | excellent uptake | lesser uptake | mildly toxic | non-toxic | accumulation | decrease | seen in the liver | highly localized in the mouse tibia tumors | localized in the tumors | not non-specifically retained in the bones | ≤ 5 | increased dramatically | no pz fluorescence in other mouse organs or tissues | accumulates over time | precise colocalization of compound 247 with the tumor cytosol
